Tests used:
NEIL1 [1] = molecular target: T1, NEIL1 (Homo sapiens, UniProt Q96FI4); experiment: gel-based incision assay of oligodeoxynucleotides containing site-specific base lesions; format: biochemical; settings: polyacrylamide gel, reaction quenched at 20 min
T1 construct: made in house
Method: The 384-well fluorogenic assay was carried out in a 20 µL reaction mixture in 20 mM Tris-HCl pH 8.0, 100 mM KCl, and 0.1% BSA, with 5 nM active enzyme and 50 nM substrate. Possible inhibitors were incubated with the enzyme for at least 5 min at room temperature in a black, low-volume 384-well plate before addition of an equal volume of substrate to start the reaction. The plates were spun for 30 s at 1000 rcf to remove bubbles. The reactions were incubated at 37°C and fluorescence data collected on an Infinite M200 (Tecan, Mannedorf, Switzerland) equipped with standard optics (excitation filter 525 nm, and emission filter 598 nm). For the gel-based assay, reactions were initiated as described for the fluorogenic assay, but quenched with 20 µL 95% formamide at 20 min. The products were separated by electrophoresis through a 15% polyacrylamide gel containing 8 M urea and visualized by a Typhoon scanner (GE Life Sciences, Piscataway, NJ). The fraction of cleaved product was measured using ImageQuant software and analyzed using GraphPad Prism 6. […]

NEIL1 [2] = molecular target: T1, NEIL1; experiment: qHTS fluorogenic glycosylase/AP lyase assay, 1536-well, Sp/Gh substrate; format: biochemical; settings: 5 concentrations
Method: The fluorogenic assay was miniaturized to 4 µL in 1536-well black solid plates by optimization of the enzyme and Sp/Gh substrate concentrations. Briefly, 3 µL of 25 nM NEIL1 were dispensed into each well of a 1536-well plate (except buffer in columns 3 and 4 as a negative control). Compounds (DMSO solutions) and control (DMSO only) (23 nL) were transferred to the plate via Kalypsys pintool. The plate was incubated for 15 min at room temperature, and then 1 µL of the Sp/Gh-containing DNA substrate (75 nM final concentration) was added to start the reaction. The plate was immediately transferred into the ViewLux reader for the kinetic fluorescence read. Initial rate data were normalized against uninhibited and no-enzyme controls and the resulting percent activities as a function of compound concentration were fitted using the Hill equation.
Having established the general principle for a glycosylase screening assay, further assay development was undertaken to enable HTS in which the reaction volumes were reduced by 5-fold to a total of 4 µL. Initially, the library of pharmacologically active compounds (LOPAC^1280) was screened for inhibitors of NEIL1 as a determination of the feasibility of this high-throughput method. […] All compounds were screened at 5 different concentrations that allowed for the initial estimation of inhibitory potency (IC50) values, as well as an evaluation of the shape of the response curves. In addition to the anticipated inhibitors (known DNA intercalators, such as ellipticine (IC50 = 2 µM)) and other small molecules that have been previously established to be promiscuous inhibitors (such as aurintricarboxylic acid (IC50<1 µM)), one interesting hit from this screen was CGP-74514A (NCGC ID is NCGC00015229) (Figure 5A). CGP-74514A is a known small molecule inhibitor of Cdk1 in which the structure of this molecule is based on a purine ring backbone.

NEIL1-depleted cells = system: NEIL1-depleted cells; parameters: method as in PMID 21131780; settings: minimally toxic doses, siRNA NEIL1 depletion; cited from earlier work
NEIL1 [3] = molecular target: T1, NEIL1; experiment: NEIL1 excision of FapyAde and FapyGua from γ-irradiated calf thymus DNA by GC-MS/MS; format: biochemical; settings: 10 µL of 2 mM inhibitor in DMSO, 1 h 37°C
Method: The enzymatic activity of NEIL1 was measured using gas chromatography/isotope-dilution tandem mass spectrometry (GC-MS/MS) and calf thymus DNA samples γ-irradiated at 20 Gy as described, [30]. Aliquots of FapyAde-^13C,^15N2 and FapyGua-^13C,^15N2 were added as internal standards to 50 µg of DNA samples. After drying in a SpeedVac, DNA samples were dissolved in 50 µL of an incubation buffer consisting of 50 mM phosphate buffer (pH 7.4), 100 mM KCl, 1 mM EDTA, and 0.1 mM dithiothreitol, and then incubated with 2 µg NEIL1 for 1 h at 37°C without any inhibitor, DMSO alone, or with 10 µL of an inhibitor solution in DMSO (2 mM). After incubation, 150 µL of cold ethanol was added. The samples were kept at −20°C for 1 h and then centrifuged with 14,000 g for 30 min at 4°C. The supernatant fractions were separated and ethanol removed in a SpeedVac under vacuum. The samples were then frozen in liquid nitrogen and lyophilized overnight. To fully remove DMSO that would interfere with GC-MS/MS analysis, 500 µL water were added to the samples followed by lyophilization overnight. This procedure was repeated twice. Dried samples were derivatized and analyzed by GC-MS/MS as described, [30]. For each data point, three independently prepared samples were used.
Although Gh and Sp are excellent substrates for NEIL1, these are likely not to be the biologically relevant substrates. Thus, to determine if the compounds that were identified above were effective in the inhibition of NEIL1 against its biologically relevant substrates FapyAde and FapyGua, [6], γ-irradiated calf thymus DNA was used as a substrate. The excision by NEIL1 of these substrates from DNA was measured by GC-MS/MS with isotope-dilution. Figure 8 illustrates the excision of FapyAde and FapyGua by NEIL1 from γ-irradiated calf thymus DNA in the absence or presence of inhibitors. […] Some inhibition by DMSO alone was also observed when compared with excision by NEIL1 alone (p = 0.01). However, when compared to DMSO, the inhibitions by P2, P6, P7 and P8 were highly significant (p<0.005). […] A p-value<0.05 was assumed to correspond to statistical significance.

T1 sequence (Q96FI4 whole entry): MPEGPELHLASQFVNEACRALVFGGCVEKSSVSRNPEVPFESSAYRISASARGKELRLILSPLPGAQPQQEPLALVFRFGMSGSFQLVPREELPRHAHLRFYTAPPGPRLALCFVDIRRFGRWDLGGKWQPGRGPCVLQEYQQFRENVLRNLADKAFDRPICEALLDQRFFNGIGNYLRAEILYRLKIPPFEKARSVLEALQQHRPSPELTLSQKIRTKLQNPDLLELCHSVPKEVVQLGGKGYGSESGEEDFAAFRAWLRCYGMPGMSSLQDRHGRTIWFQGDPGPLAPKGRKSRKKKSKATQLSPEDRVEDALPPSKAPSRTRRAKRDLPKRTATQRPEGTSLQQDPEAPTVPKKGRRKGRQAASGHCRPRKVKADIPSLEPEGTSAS

O=C(OCC1OC(n2cnc3c(N(C(=O)c4ccccc4)C(=O)c4ccccc4)ncnc32)C(O)C1F)c1ccccc1 (stereo not shown) [Purine P3] gave an IC50 (NEIL1 [1]) of over 50 µM and an IC50 (NEIL1 [2]) of 3.2 µM.
Work on COc1ccc(CNc2nc(NCc3ccc(OC)cc3)c3[nH]cnc3n2)cc1 [Purine P40] yielded an IC50 (NEIL1 [1]) of over 50 µM and an IC50 (NEIL1 [2]) of 0.6 µM.
Cc1cccc(OCCSc2nc3c([nH]2)c(=N)ncn3Cc2ccccc2)c1 [Purine P39] gave an IC50 (NEIL1 [1]) of over 50 µM and an IC50 (NEIL1 [2]) of 0.6 µM.
For CN(Cc1cnc2nc(N)nc(N)c2n1)c1ccc(C(=O)N[C@@H](CCC(=O)O)C(=O)O)cc1 [MTX, methotrexate], the “increased cytotoxicity in NEIL1-depleted cells” value (“increased cytotoxicity” below) (NEIL1-depleted cells) is given as 10 fold.
For CC(C)n1cnc2c(N(C)c3ccccc3)nc(N(CCN(C)C)Cc3ccccc3)nc21 [Purine P13], the IC50 (NEIL1 [1]) was over 50 µM and the IC50 (NEIL1 [2]) was 12.6 µM.
In the case of CN(C)CCNc1ncnc2c1ncn2[C@H]1CN(Cc2ccc(-c3ccccc3)cc2)C[C@@H](CO)O1 [Purine P16], the IC50 (NEIL1 [1]) is reported as over 50 µM and the IC50 (NEIL1 [2]) is reported as 15.8 µM.
COc1cccc(-c2cc(CNC(=O)[C@H]3O[C@@H](n4cnc5c(N)ncnc54)[C@H](O)[C@@H]3O)no2)c1 [Purine P34] gave an IC50 (NEIL1 [1]) of over 50 µM and an IC50 (NEIL1 [2]) of 10 µM.
With COc1ccc2[nH]cc(CCNC(=O)/C=C/[C@H]3O[C@@H](n4cnc5c(NC(=O)c6ccccc6)ncnc54)[C@H](O)[C@@H]3O)c2c1 [Purine P35] the IC50 (NEIL1 [1]) was over 50 µM and the IC50 (NEIL1 [2]) was 11.2 µM.
With CC(=O)c1ccc(N2CCN(C(=O)C3CCCN(c4ncnc5c4nc4n5CCCCC4)C3)CC2)cc1 (stereo not shown) [Purine P27] the IC50 (NEIL1 [1]) was over 50 µM and the IC50 (NEIL1 [2]) was 0.6 µM.
In the case of CCOCCCNc1ncnc2c1nc1n2CCCC1 [Purine P42], the IC50 (NEIL1 [1]) is reported as over 50 µM and the IC50 (NEIL1 [2]) is reported as 0.8 µM.
In the case of Cc1ccc(C(=O)Nc2cccc(C(F)(F)F)c2)cc1Nc1ncnc2nc[nH]c12 [Purine P20], the IC50 (NEIL1 [1]) is reported as over 50 µM and the IC50 (NEIL1 [2]) is reported as 22.4 µM.
For N#Cc1nc(Nc2cc(F)cc(F)c2)c2ncn(CCCN3CCCC3)c2n1 [Purine P5], the IC50 (NEIL1 [1]) was over 50 µM and the IC50 (NEIL1 [2]) was 7.9 µM.
For Nc1ncnc2c1ncn2[C@@H]1O[C@H](CNCc2cccc(C#Cc3ccccc3)c2)[C@@H](O)[C@H]1O [Purine P14], the IC50 (NEIL1 [1]) was over 50 µM and the IC50 (NEIL1 [2]) was 12.6 µM.
O=C(C1CCCN(c2ncnc3c2nc2n3CCCCC2)C1)N1CCN(c2ccc(F)cc2)CC1 (stereo not shown) [Purine P41] gave an IC50 (NEIL1 [1]) of over 50 µM and an IC50 (NEIL1 [2]) of 0.8 µM.
In the case of CCNc1nc(C#N)nc2c1ncn2-c1cccc(Cl)c1 [Purine P10], the IC50 (NEIL1 [1]) is reported as over 50 µM and the IC50 (NEIL1 [2]) is reported as 10 µM.
For CCc1cccc(NC(=O)C2CCCN(c3ncnc4c3nc3n4CCCCC3)C2)c1 (stereo not shown) [Purine P28], the IC50 (NEIL1 [1]) was over 20 µM and the IC50 (NEIL1 [2]) was 0.7 µM.
Work on Cc1ccccc1CN1CCC(CNC(=O)C2CCCN(c3ncnc4c3nc3n4CCCCC3)C2)CC1 (stereo not shown) [Purine P31] yielded an IC50 (NEIL1 [1]) of over 50 µM and an IC50 (NEIL1 [2]) of 7.1 µM.
CC(C)[C@H](CO)N(Cc1cccc(F)c1)c1nc(Nc2cccc(Cl)c2)c2ncn(C(C)C)c2n1 [Purine P32] showed an IC50 (NEIL1 [1]) of 19.3 µM and an IC50 (NEIL1 [2]) of 7.1 µM.
Cc1cc(C)c(CN2CCN(C(=O)Cn3cnc4c(NCc5ccccc5)ncnc43)CC2)c(C)c1 [Purine P25] gave an IC50 (NEIL1 [1]) of over 20 µM and an IC50 (NEIL1 [2]) of 31.6 µM.
For CC(=O)OC[C@@H]1CN(Cc2ccccc2)C[C@H](n2cnc3c(NCc4ccc(F)cc4)ncnc32)O1 [Purine P29], the IC50 (NEIL1 [1]) was over 50 µM and the IC50 (NEIL1 [2]) was 0.9 µM.
In the case of Cc1ccc2nc(N)[nH]c(=O)c2c1Sc1ccncc1 [NOL, nolatrexed], the “increased cytotoxicity” value (NEIL1-depleted cells) is given as 5 fold.
With CC(C)n1cnc2c(NCc3ccccc3)nc(NCc3ccccc3)nc21 [Purine P33] the IC50 (NEIL1 [1]) was over 50 µM and the IC50 (NEIL1 [2]) was 7.9 µM.
With Cc1ccc(NC(=O)C2CCCN(c3ncnc4c3nc3n4CCCCC3)C2)cc1Cl (stereo not shown) [Purine P22] the IC50 (NEIL1 [1]) was over 50 µM and the IC50 (NEIL1 [2]) was 25.1 µM.
For Cc1nc2ccc(CN(C)c3ccc(C(=O)N[C@@H](CCC(=O)O)C(=O)O)s3)cc2c(=O)[nH]1 [RTX, raltitrexed], the “increased cytotoxicity” value (NEIL1-depleted cells) is listed as 9 fold.
c1ccc(COc2ccc(Nc3ncnc4nc[nH]c34)cc2)cc1 [Purine P26] gave an IC50 (NEIL1 [1]) of over 20 µM and an IC50 (NEIL1 [2]) of 31.6 µM.
COc1ccccc1CNC(=O)C1CCN(c2ncnc3c2nc2n3CCCCC2)CC1 [Purine P37] showed an IC50 (NEIL1 [1]) of over 50 µM and an IC50 (NEIL1 [2]) of 10 µM.
Compound Cc1cc(/C=C/C#N)cc(C)c1Nc1nc(Nc2ccc3n[nH]nc3c2)c2[nH]cnc2n1 [Purine P18] has an IC50 (NEIL1 [1]) of over 50 µM and an IC50 (NEIL1 [2]) of 17.8 µM.
OC[C@@H]1CN(Cc2ccccc2)C[C@H](n2cnc3c(N4CCN(c5ccccc5)CC4)ncnc32)O1 [Purine P38] showed an IC50 (NEIL1 [1]) of over 50 µM and an IC50 (NEIL1 [2]) of 0.3 µM.
With O=C(C1CCN(c2ncnc3c2nc2n3CCCCC2)CC1)N1CCN(c2cccc(Cl)c2)CC1 [Purine P19] the IC50 (NEIL1 [1]) was over 20 µM, the “inhibition of NEIL1 excision of FapyAde and FapyGua” value (NEIL1 [3]) was “no inhibition” and the IC50 (NEIL1 [2]) was 20 µM.
For Nc1nc(N)c2[nH]c(-c3ccccc3)nc2n1 [Purine P36], the IC50 (NEIL1 [1]) was over 50 µM and the IC50 (NEIL1 [2]) was 15.5 µM.
For CNC(=O)[C@H]1O[C@H](n2cnc3c(NCc4cccc(I)c4)ncnc32)[C@@H](O)[C@@H]1O [Purine P30], the IC50 (NEIL1 [1]) was over 50 µM and the IC50 (NEIL1 [2]) was 1.8 µM.
Compound O=C(O)C1=CC(=C(c2ccc(O)c(C(=O)O)c2)c2ccc(O)c(C(=O)O)c2)C=CC1=O [aurintricarboxylic acid, reference compound] has an IC50 (NEIL1 [2]) of under 1 µM.
Compound N#Cc1nc(Nc2cc(F)cc(F)c2)c2ncn(CCN3CCCC3)c2n1 [Purine P1] has an IC50 (NEIL1 [1]) of over 50 µM and an IC50 (NEIL1 [2]) of 3.6 µM.
For Nc1nc(N)c2nc(CNc3ccc(C(=O)N[C@@H](CCC(=O)O)C(=O)O)cc3)cnc2n1 [AMT, aminopterin], the “increased cytotoxicity” value (NEIL1-depleted cells) is given as 7 fold.
With C=CC(=O)N1CCCC(Nc2nc(Nc3ccc(N(C)C(=O)CC)cc3C)nc3nc[nH]c23)C1 (stereo not shown) [Purine P12] the IC50 (NEIL1 [1]) was over 20 µM and the IC50 (NEIL1 [2]) was 11.2 µM.
For O=C(C1CCCN(c2ncnc3c2nc2n3CCCCC2)C1)N1CCN(c2cccc(Cl)c2)CC1 (stereo not shown) [Purine P17], the IC50 (NEIL1 [1]) was over 50 µM and the IC50 (NEIL1 [2]) was 15.8 µM.
CC(C)CNc1ncnc2c1ncn2[C@H]1CN(Cc2ccc(-c3ccccc3)cc2)C[C@@H](CO)O1 [Purine P15] showed an IC50 (NEIL1 [1]) of over 50 µM and an IC50 (NEIL1 [2]) of 14.1 µM.

From PMC3857224, “Inhibition of DNA Glycosylases via Small Molecule Purine Analogs” (PLoS ONE, 2013)
